# Reference: PMC9386811 (ACS Omega, 2022)
# Biological target: alpha-glucosidase from Saccharomyces cerevisiae (Baker's yeast) (Saccharomyces cerevisiae, UniProt P53341)
# Experiment: In vitro α-glucosidase inhibitory activity
# Assay type: biochemical
# Chain of alpha-glucosidase from Saccharomyces cerevisiae (Baker's yeast) (P53341 whole entry): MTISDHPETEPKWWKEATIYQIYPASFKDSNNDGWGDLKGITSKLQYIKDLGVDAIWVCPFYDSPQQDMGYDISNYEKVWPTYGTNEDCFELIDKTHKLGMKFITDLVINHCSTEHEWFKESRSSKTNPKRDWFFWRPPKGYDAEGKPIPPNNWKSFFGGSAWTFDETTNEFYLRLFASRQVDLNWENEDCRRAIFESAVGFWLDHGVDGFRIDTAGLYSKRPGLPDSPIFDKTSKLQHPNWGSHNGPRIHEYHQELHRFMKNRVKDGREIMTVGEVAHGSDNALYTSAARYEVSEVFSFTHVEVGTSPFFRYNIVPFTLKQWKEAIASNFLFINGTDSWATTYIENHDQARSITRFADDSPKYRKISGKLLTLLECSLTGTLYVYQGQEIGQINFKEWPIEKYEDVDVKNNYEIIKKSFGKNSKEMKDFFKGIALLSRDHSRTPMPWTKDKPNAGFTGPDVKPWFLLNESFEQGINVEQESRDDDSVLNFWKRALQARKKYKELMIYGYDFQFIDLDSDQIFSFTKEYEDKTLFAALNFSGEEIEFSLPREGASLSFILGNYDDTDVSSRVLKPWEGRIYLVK
row,SMILES,IC50 [µM]
1,"CCCCCCSc1nc2ccccc2n1CC(=O)NN1C(=O)CSC1c1cccc(OC)c1O (stereo not drawn) [Compound 11, 2-[2-(Hexylthio)-1H-benzo[d]imidazole-1-yl]-N-[-2-(2-hydroxy-3-methoxyphenyl)-4-oxothiazolidin-3-yl]acetamide]",24.1 ± 0.3
2,"CCCCCCSc1nc2ccccc2n1CC(=O)NN1C(=O)CSC1c1ccc([N+](=O)[O-])cc1 (stereo not drawn) [Compound 5, 2-[2-(Hexylthio)-1H-benzo[d]imidazole-1-yl]-N-[2-(4-nitrophenyl)-4-oxothiazolidin-3-yl]acetamide]",5.22 ± 0.14
3,"CCCCCCSc1nc2ccccc2n1CC(=O)NN1C(=O)CSC1c1ccc(C=O)cc1 (stereo not drawn) [Compound 8, 2-[2-(Hexylthio)-1H-benzo[d]imidazole-1-yl]-N-[2-(4-formylphenyl)-4-oxothiazolidin-3-yl]acetamide]",5.69 ± 0.1
4,"CCCCCCSc1nc2ccccc2n1CC(=O)NN1C(=O)CSC1c1ccc(O)c(OC)c1 (stereo not drawn) [Compound 14, 2-[2-(Hexylthio)-1H-benzo[d]imidazole-1-yl]-N-[2-(4-hydroxy-3-methoxyphenyl)-4-oxothiazolidin-3-yl]acetamide]",10.2 ± 0.12
5,"CCCCCCSc1nc2ccccc2n1CC(=O)NN1C(=O)CSC1c1ccccc1OC (stereo not drawn) [Compound 15, 2-[2-(Hexylthio)-1H-benzo[d]imidazole-1-yl]-N-[2-(2-methoxyphenyl)-4-oxothiazolidin-3-yl]acetamide]",89.28 ± 0.52
6,"CCCCCCSc1nc2ccccc2n1CC(=O)NN1C(=O)CSC1c1ccc(Cl)cc1Cl (stereo not drawn) [Compound 12, 2-[2-(Hexylthio)-1H-benzo[d]imidazole-1-yl]-N-[2-(2,4-dichlorophenyl)-4-oxothiazolidin-3-yl]acetamide]",33.4 ± 0.38

# Second part, the molecule after the results:
row,IC50 [µM],SMILES
1,23.7 ± 0.25,"CCCCCCSc1nc2ccccc2n1CC(=O)NN1C(=O)CSC1c1ccc(C)cc1 (stereo not drawn) [Compound 24, 2-[2-(Hexylthio)-1H-benzo[d]imidazole-1-yl)-N-[4-oxo-2-(p-tolyl)thiazolidin-3-yl]acetamide]"
2,39.06 ± 0.27,"CCCCCCSc1nc2ccccc2n1CC(=O)NN1C(=O)CSC1c1ccc(C)o1 (stereo not drawn) [Compound 19, 2-[2-(Hexylthio)-1H-benzo[d]imidazole-1-yl]-N-[2-(5-methylfuran-2-yl)-4-oxothiazolidin-3-yl]acetamide]"
3,63.68 ± 0.52,"CCCCCCSc1nc2ccccc2n1CC(=O)NN1C(=O)CSC1c1ccc(OC)cc1 (stereo not drawn) [Compound 17, 2-[2-(Hexylthio)-1H-benzo[d]imidazole-1-yl]-N-[2-(4-methoxyphenyl)-4-oxothiazolidin-3-yl]acetamide]"
4,41 ± 0.36,"CCCCCCSc1nc2ccccc2n1CC(=O)NN1C(=O)CSC1c1ccc2ccccc2c1 (stereo not drawn) [Compound 22, 2-[2-(Hexylthio)-1H-benzo[d]imidazole-1-yl]-N-[2-(naphthalen-2-yl)-4-oxothiazolidin-3-yl]acetamide]"
5,26.38 ± 0.18,"CCCCCCSc1nc2ccccc2n1CC(=O)NN1C(=O)CSC1c1ccc(F)cc1 (stereo not drawn) [Compound 23, 2-[2-(Hexylthio)-1H-benzo[d]imidazole-1-yl]-N-[2-(4-fluorophenyl)-4-oxothiazolidin-3-yl]acetamide]"
6,54.4 ± 0.65,"CCCCCCSc1nc2ccccc2n1CC(=O)NN1C(=O)CSC1c1cccs1 (stereo not drawn) [Compound 21, 2-[2-(Hexylthio)-1H-benzo[d]imidazole-1-yl]-N-[4-oxo-2-(thiophen-2-yl)-thiazolidin-3-yl]acetamide]"
